Assay results as given in US12370235B2, “Synthetic, non-natural antimicrobial peptides inspired by Staphylococcus auricularis delta toxin” (University of Saskatchewan, priority 2021, dated 2025).
Ends that are not written are not given here.

Key:
S. aureus ATCC 29213 = experiment: MIC, broth dilution; format: cell-based, Staphylococcus aureus; settings: Table 5; STIP3 variants, highest concentration 100 μg/mL
Method: (§1) MIC determination. MICs were measured using peptides with 95% purity. For bacterial studies, cation-adjusted Mueller Hinton (MH) broth was used as the growth medium whereas Yeast Peptone Dextrose (YPD; 10 g/L yeast extract, 20 g/L peptone, 20 g/L dextrose) was used for Candida spp. and other yeast. Microorganisms were diluted to an optical density of […] in MH or YPD broth and a 180 μl volume was mixed with 20 μl of peptide arrayed as a 2-fold dilution series in a flat-bottom 96-well microtitre plate. A control was performed using 20 μl of sterile water. Plates were incubated as standing cultures overnight at 37° C.
(§2) Determination of minimum inhibitory concentrations. The MICs were measured for bioactive peptides identified from the initial screen. For bacterial studies, cation-adjusted Mueller Hinton (MH) broth was used as the growth medium whereas YPD was used for C. albicans. Bacterial cultures were diluted to a OD value of 6×10^−4 in MH broth and a 180 μl volume was mixed with 20 μl of peptide arrayed as 2-fold dilution series in a 96-well plate. For the positive control, 20 μl of sterile water was used. Plates were incubated as standing cultures overnight at 37° C. The lowest peptide concentration that resulted no observed microbial growth after an overnight treatment was defined as the MIC.

[1] = test system: S. aureus ATCC 33592 (MRSA SCCmec type III); experiment: MIC, broth dilution; format: cell-based, Staphylococcus aureus; settings: Table 5; STIP3 variants, highest concentration 100 μg/mL
Method: as §1, §2

[2] = test system: S. aureus ATCC BAA-1683 (MRSA SCCmec type IV); experiment: MIC, broth dilution; format: cell-based, Staphylococcus aureus; settings: Table 5; STIP3 variants, highest concentration 100 μg/mL
Method: as §1, §2

[3] = test system: S. aureus ATCC BAA-2094 (MRSA SCCmec type V); experiment: MIC, broth dilution; format: cell-based, Staphylococcus aureus; settings: Table 5; STIP3 variants, highest concentration 100 μg/mL
Method: as §1, §2

[4] = test system: S. aureus ATCC BAA-2313 (MRSA SCCmec type XI); experiment: MIC, broth dilution; format: cell-based, Staphylococcus aureus; settings: Table 5; STIP3 variants, highest concentration 100 μg/mL
Method: as §1, §2

[5] = test system: S. aureus ATCC BAA-41 (MRSA SCCmec type II); experiment: MIC, broth dilution; format: cell-based, Staphylococcus aureus; settings: Table 5; STIP3 variants, highest concentration 100 μg/mL
Method: as §1, §2

[6] = test system: S. aureus ATCC BAA-42 (MRSA SCCmec type VI); experiment: MIC, broth dilution; format: cell-based, Staphylococcus aureus; settings: Table 5; STIP3 variants, highest concentration 100 μg/mL
Method: as §1, §2

[7] = test system: S. aureus ATCC BAA-44 (MRSA SCCmec type I); experiment: MIC, broth dilution; format: cell-based, Staphylococcus aureus; settings: Table 5; STIP3 variants, highest concentration 100 μg/mL
Method: as §1, §2

[8] = test system: Mannheimia haemolytica ATCC 33393; experiment: MIC, broth dilution; format: cell-based; settings: Table 11; highest concentration 25 μg/mL
Method: as §1, §2
The ability of STIP3 variants to inhibit the growth of Mannheimia haemolytica ATCC 33393 was evaluated. This included an alanine scan of STIP3-1 (FIG. 8 & Table 10) as well as 30 rationally-designed STIPs that were evaluated in the preceding Examples against other pathogens (Table 11). Substitutions at a greater number of sites were tolerated in the context of antimicrobial activity. Moreover, the inclusion of basic natural and unnatural amino acids (e.g. lysine, ornithine, and arginine) at positions 3, 4 and 11 (i.e. X1, X2, and X4 of SEQ ID NO: 32) to afford a more uniformly cationic peptide increased activity against M. haemolytica.

C. albicans MYA-2876 = experiment: MIC, YPD broth; format: cell-based, Candida albicans; settings: Table 8
Method: as §1, §2

[9] = test system: Candida duobushaemulonii AR 391; experiment: MIC, YPD broth, CDC and FDA AR Candida isolate panel; format: cell-based; settings: Table 9 below the line: only 200 or 100 μg/mL tested; values reported as 100 are ≤100 μg/mL
Method: as §1

[10] = test system: Candida duobushaemulonii AR 392; experiment: as above; format: cell-based; settings: Table 9 below the line: only 200 or 100 μg/mL tested; values reported as 100 are ≤100 μg/mL
Method: as §1

[11] = test system: Candida duobushaemulonii AR 394; experiment: as above; format: cell-based; settings: Table 9 below the line: only 200 or 100 μg/mL tested; values reported as 100 are ≤100 μg/mL
Method: as §1

[12] = test system: Candida haemulonii AR 393; experiment: as above; format: cell-based; settings: Table 9 below the line: only 200 or 100 μg/mL tested; values reported as 100 are ≤100 μg/mL
Method: as §1

[13] = test system: Candida haemulonii AR 395; experiment: as above; format: cell-based; settings: Table 9 below the line: only 200 or 100 μg/mL tested; values reported as 100 are ≤100 μg/mL
Method: as §1

Candida krusei AR 397 = experiment: as above; format: cell-based; settings: Table 9 below the line: only 200 or 100 μg/mL tested; values reported as 100 are ≤100 μg/mL
Method: as §1

[14] = test system: Candida lusitaniae AR 398; experiment: as above; format: cell-based; settings: Table 9 below the line: only 200 or 100 μg/mL tested; values reported as 100 are ≤100 μg/mL
Method: as §1

Kodamae ohmeri AR 396 = experiment: as above; format: cell-based; settings: Table 9 below the line: only 200 or 100 μg/mL tested; values reported as 100 are ≤100 μg/mL
Method: as §1

[15] = test system: Saccharomyces cerevisiae AR 399; experiment: as above; format: cell-based; settings: Table 9 below the line: only 200 or 100 μg/mL tested; values reported as 100 are ≤100 μg/mL
Method: as §1

[16] = test system: Saccharomyces cerevisiae AR 400; experiment: as above; format: cell-based; settings: Table 9 below the line: only 200 or 100 μg/mL tested; values reported as 100 are ≤100 μg/mL
Method: as §1

TVGGLVKWILDTVKKFW [STIP3-6, TVGGLVKWILDTVKKFW]
MIC S. aureus ATCC 29213 (S. aureus ATCC 29213): 12.5 µg/mL | MIC S. aureus ATCC 33592 (III) [1]: 12.5 µg/mL | MIC S. aureus ATCC BAA 1683 (IV) [2]: 12.5 µg/mL | MIC S. aureus ATCC BAA 2094 (V) [3]: 12.5 µg/mL | MIC S. aureus ATCC BAA 2313 (XI) [4]: 12.5 µg/mL | MIC S. aureus ATCC BAA 41 (II) [5]: 12.5 µg/mL | MIC S. aureus ATCC BAA 42 (VI) [6]: 12.5 µg/mL | MIC S. aureus ATCC BAA 44 (I) [7]: 25 µg/mL | MIC (μg/mL) M. haemolytica [8]: 25 µg/mL | MIC C. albicans MYA-2876 (C. albicans MYA-2876): 50 µg/mL | MIC (μg/mL) Candida duobushaemulonii AR 391 [9]: > (values below the line were determined using two concentrations of peptide 200 or 100 μg/mL) | MIC (μg/mL) Candida duobushaemulonii AR 392 [10]: > (values below the line were determined using two concentrations of peptide 200 or 100 μg/mL) | MIC (μg/mL) Candida duobushaemulonii AR 394 [11]: > (values below the line were determined using two concentrations of peptide 200 or 100 μg/mL) | MIC (μg/mL) Candida haemulonii AR 393 [12]: > (values below the line were determined using two concentrations of peptide 200 or 100 μg/mL) | MIC (μg/mL) Candida haemulonii AR 395 [13]: > (values below the line were determined using two concentrations of peptide 200 or 100 μg/mL) | MIC (μg/mL) Candida krusei AR 397 (Candida krusei AR 397): ≤ 100 µg/mL | MIC (μg/mL) Candida lusitaniae AR 398 [14]: ≤ 100 µg/mL | MIC (μg/mL) Kodamae ohmeri AR 396 (Kodamae ohmeri AR 396): > (values below the line were determined using two concentrations of peptide 200 or 100 μg/mL) | MIC (μg/mL) Saccharomyces cerevisiae AR 399 [15]: ≤ 100 µg/mL | MIC (μg/mL) Saccharomyces cerevisiae AR 400 [16]: ≤ 100 µg/mL

TVGGLVKWILDVVKKFA [STIP3-9, TVGGLVKWILDVVKKFA]
MIC S. aureus ATCC 29213 (S. aureus ATCC 29213): 25 µg/mL | MIC S. aureus ATCC 33592 (III) [1]: 25 µg/mL | MIC S. aureus ATCC BAA 1683 (IV) [2]: 25 µg/mL | MIC S. aureus ATCC BAA 2094 (V) [3]: 25 µg/mL | MIC S. aureus ATCC BAA 2313 (XI) [4]: 25 µg/mL | MIC S. aureus ATCC BAA 41 (II) [5]: 35 µg/mL | MIC S. aureus ATCC BAA 42 (VI) [6]: 25 µg/mL | MIC S. aureus ATCC BAA 44 (I) [7]: 25 µg/mL | MIC (μg/mL) M. haemolytica [8]: 25 µg/mL | MIC C. albicans MYA-2876 (C. albicans MYA-2876): 50 µg/mL | MIC (μg/mL) Candida duobushaemulonii AR 391 [9]: > (values below the line were determined using two concentrations of peptide 200 or 100 μg/mL) | MIC (μg/mL) Candida duobushaemulonii AR 392 [10]: > (values below the line were determined using two concentrations of peptide 200 or 100 μg/mL) | MIC (μg/mL) Candida duobushaemulonii AR 394 [11]: > (values below the line were determined using two concentrations of peptide 200 or 100 μg/mL) | MIC (μg/mL) Candida haemulonii AR 393 [12]: > (values below the line were determined using two concentrations of peptide 200 or 100 μg/mL) | MIC (μg/mL) Candida haemulonii AR 395 [13]: > (values below the line were determined using two concentrations of peptide 200 or 100 μg/mL) | MIC (μg/mL) Candida krusei AR 397 (Candida krusei AR 397): ≤ 100 µg/mL | MIC (μg/mL) Candida lusitaniae AR 398 [14]: ≤ 100 µg/mL | MIC (μg/mL) Kodamae ohmeri AR 396 (Kodamae ohmeri AR 396): > (values below the line were determined using two concentrations of peptide 200 or 100 μg/mL) | MIC (μg/mL) Saccharomyces cerevisiae AR 399 [15]: ≤ 100 µg/mL | MIC (μg/mL) Saccharomyces cerevisiae AR 400 [16]: ≤ 100 µg/mL
